# Measured values: patent US10010572B2, “Composition for musculoskeletal pain” (priority 2015, dated 2018)
# Tested on: chronic musculoskeletal pain
# Assay: Randomized, double-blind, placebo-controlled clinical study of topical analgesics (St. Lucia), Subjective Pain Intensity Rating (SPIR)
# Description: Chronic musculoskeletal pain is relatively common in all age groups and may be the result of work-related trauma, sports-related injuries, postural events, various traumas and the natural aging process. Pharmaceutical agents including non-steroidal anti-inflammatory drugs acetaminophen, opioids and other drugs are frequently used to treat such patients. Because of the potential adverse effects associated with most of these drugs, one embodiment of the present invention, a topical analgesic, with coconut oil as a base ingredient and other natural oils, was clinically tested to determine its efficacy in the management of chronic musculoskeletal pain.
# One hundred ninety six (196) patients were enrolled in the study. The patients were randomized to the 3 groups using the nQuery Advisor version 7.0 software protocol.
# After obtaining permission from the Committee for the Protection of Human Subjects attached to the St. Lucia Pain Institute, the Ministry of Health in St. Lucia and the St. Lucia Medical and Dental Association Ethics Committee, a randomized, double-blind, placebo-controlled study was designed and implemented in the Caribbean island of St. Lucia. St. Lucia was chosen as the study site for a number of reasons: that population is relatively opioid-naive; chronic musculoskeletal pain is quite common, and most patients tend to use and in some cases, prefer to use topical analgesics for musculoskeletal pain management instead of oral or other parenteral medications. Moreover, the Principal Investigator (inventor of the present invention) lives in St. Lucia for part of the year. One hundred and ninety-six (196) patients were enrolled in the study and were subsequently randomized to a pre-determined computerized protocol. […] The Diclofenac ointment was dispensed in a label-less tube.
# All patients were initially evaluated by the Principal Investigator and another investigator after triage screening by the Study Coordinator. At that screening, the patients were assessed using the inclusionary and exclusionary criteria. […] Patients were recruited via television, radio and newspaper announcements, and interviews announcing the study. […] This study was supported and funded by three St. Lucian Financial Institutions.
# Subjective Pain Intensity Rating (SPIR) was determined on each patient using a scale of 0 (no pain) to 10 (the maximum possible pain, e.g. immersion of the hand in boiling water). That raw score was multiplied by 10 to obtain a percentage score. […] After successful enrollment, patients were randomized to one of the 3 groups. Patients were dispensed with 5 ounces of one of the 3 medications and were instructed to apply the medication twice daily for 2 weeks.
# All patients were contacted by the Study Coordinator after 2 weeks and pain score (as described above), satisfaction with the drug, satisfaction with the overall study and the presence of adverse effects were determined. Then, 2 weeks later (4 weeks after study commencement), patients were asked to return to the study office (St. Lucia Pain Institute office) for follow-up clinical evaluation and determination of pain score, adverse effects and related data similar to what was obtained at 2 weeks.
smiles,measurement,setting,value
O=C(O)Cc1ccccc1Nc1c(Cl)cccc1Cl [Diclofenac],Median pain score at 3 months,"100 point scale, 3 month post-study telephone interview",25%
same,Median change in pain from baseline to 3 months (decrease),"100 point scale, decrease, not statistically significant among groups",30%
same,patients with progressive radicular pain and paresthesiae (major adverse effect),"after 5 days, subsided on discontinuation, reappeared on re-introduction, study discontinued in that patient after 8 days",One
same,change in SPIR pain score from baseline to 2 weeks,"patients with chronic axial musculoskeletal pain, topical twice daily, baseline to 2 weeks, all p<0.0001",corresponding decreases in pain scores
same,change in SPIR pain score from baseline to 4 weeks,"patients with chronic axial musculoskeletal pain, topical twice daily, baseline to 4 weeks, all p<0.0001",corresponding decreases in pain scores
same,patients who developed superficial skin rashes,receded without therapy when the drug was discontinued,Four
